# In US20160250177A1, “MODIFIED DOCETAXEL LIPOSOME FORMULATIONS AND USES THEREOF” (MALLINCKRODT LLC, priority 2015, published 2016):
# Read-outs that look alike come from different tables or passages of the source.
# Key:
# [1] = human, in vivo; for AUC/Dose / CL / Cmax/Dose / Vss: iv
# clinical = conditions: human, in vivo
molecule,measurement,setting,value
CC(=O)O[C@@]12CO[C@@H]1C[C@H](O)[C@@]1(C)C(=O)[C@H](O)C3=C(C)[C@@H](OC(=O)[C@H](OC(=O)CN4CCN(C)CC4)[C@@H](NC(=O)OC(C)(C)C)c4ccccc4)C[C@@](O)([C@@H](OC(=O)c4ccccc4)[C@H]21)C3(C)C [TD-1],CL (mean),[1],0.025 L/h/m^2
same,Cmax and AUC with respect to dose,[1],remained linear with respect to dose
same,Vss (mean),[1],1.422 L/m^2
same,dose proportionality for Cmax and AUCinf,[1],demonstrate dose proportionality
same,AUC/Dose,[1]; 12 mg/m2,38106 m^2 · ng · h/ml/mg
same,CL,[1]; 12 mg/m2,0.0283 l/h/m^2
same,Cmax/Dose,[1]; 12 mg/m2,539.6 m^2 · ng/ml/mg
same,Vss,[1]; 12 mg/m2,1.46 l/m^2
same,AUC/Dose,[1]; 48 mg/m2,55469 m^2 · ng · h/ml/mg
same,CL,[1]; 48 mg/m2,0.0186 l/h/m^2
same,Cmax/Dose,[1]; 48 mg/m2,640.3 m^2 · ng/ml/mg
same,Vss,[1]; 48 mg/m2,1.40 l/m^2
same,AUC/Dose,[1]; 120 mg/m2,52326 m^2 · ng · h/ml/mg
same,CL,[1]; 120 mg/m2,0.0202 l/h/m^2
same,Cmax/Dose,[1]; 120 mg/m2,573.6 m^2 · ng/ml/mg
same,Vss,[1]; 120 mg/m2,0.090 l/m^2
same,AUC/Dose,[1]; 225 mg/m2,58571 m^2 · ng · h/ml/mg
same,CL,[1]; 225 mg/m2,0.0184 l/h/m^2
same,Cmax/Dose,[1]; 225 mg/m2,662.2 m^2 · ng/ml/mg
same,Vss,[1]; 225 mg/m2,1.08 l/m^2
same,AUC/Dose,[1]; 320 mg/m2,405478 m^2 · ng · h/ml/mg
same,CL,[1]; 320 mg/m2,0.0260 l/h/m^2
same,Cmax/Dose,[1]; 320 mg/m2,640.6 m^2 · ng/ml/mg
same,Vss,[1]; 320 mg/m2,1.58 l/m^2
same,half-life,clinical; average t1/2 for TD-1,~51 h
same,AUC(0-inf),"clinical; iv, 3 mg/m2",103 µg·h/mL
same,Cmax,"clinical; iv, 3 mg/m2",1.52 µg/mL
same,half-life,"clinical; iv, 3 mg/m2, t1/2",48.8 h
same,AUC(0-inf),"clinical; iv, 6 mg/m2",252 µg·h/mL
same,Cmax,"clinical; iv, 6 mg/m2",3.15 µg/mL
same,half-life,"clinical; iv, 6 mg/m2, t1/2",57.6 h
same,AUC(0-inf),"clinical; iv, 12 mg/m2",457 µg·h/mL
same,Cmax,"clinical; iv, 12 mg/m2",6.48 µg/mL
same,half-life,"clinical; iv, 12 mg/m2, t1/2",44 h
same,AUC(0-inf),"clinical; iv, 24 mg/m2",955 µg·h/mL
same,Cmax,"clinical; iv, 24 mg/m2",13.7 µg/mL
same,half-life,"clinical; iv, 24 mg/m2, t1/2",43.8 h
same,AUC(0-inf),"clinical; iv, 48 mg/m2",2660 µg·h/mL
same,Cmax,"clinical; iv, 48 mg/m2",30.7 µg/mL
same,half-life,"clinical; iv, 48 mg/m2, t1/2",59.3 h
same,AUC(0-inf),"clinical; iv, 80 mg/m2",2390 µg·h/mL
same,Cmax,"clinical; iv, 80 mg/m2",43.4 µg/mL
same,half-life,"clinical; iv, 80 mg/m2, t1/2",26.7 h
same,AUC(0-inf),"clinical; iv, 120 mg/m2",6280 µg·h/mL
same,Cmax,"clinical; iv, 120 mg/m2",68.8 µg/mL
same,half-life,"clinical; iv, 120 mg/m2, t1/2",48.3 h
same,AUC(0-inf),"clinical; iv, 160 mg/m2",9440 µg·h/mL
same,Cmax,"clinical; iv, 160 mg/m2",98.5 µg/mL
same,half-life,"clinical; iv, 160 mg/m2, t1/2",66.1 h
same,AUC(0-inf),"clinical; iv, 190 mg/m2",9810 µg·h/mL
same,Cmax,"clinical; iv, 190 mg/m2",143 µg/mL
same,half-life,"clinical; iv, 190 mg/m2, t1/2",53 h
same,AUC(0-inf),"clinical; iv, 225 mg/m2",13200 µg·h/mL
same,Cmax,"clinical; iv, 225 mg/m2",149 µg/mL
same,half-life,"clinical; iv, 225 mg/m2, t1/2",54.5 h
same,AUC(0-inf),"clinical; iv, 270 mg/m2",8370 µg·h/mL
same,Cmax,"clinical; iv, 270 mg/m2",150 µg/mL
same,half-life,"clinical; iv, 270 mg/m2, t1/2",35.6 h
same,AUC(0-inf),"clinical; iv, 320 mg/m2",13000 µg·h/mL
same,Cmax,"clinical; iv, 320 mg/m2",205 µg/mL
same,half-life,"clinical; iv, 320 mg/m2, t1/2",43.7 h
same,AUC(0-inf),"clinical; iv, 380 mg/m2",34100 µg·h/mL
same,Cmax,"clinical; iv, 380 mg/m2",310 µg/mL
same,half-life,"clinical; iv, 380 mg/m2, t1/2",84.4 h
same,half-life,clinical; t1/2 (mean),~50 h
distearoyl-phosphatidylethanolamine-N-[methoxy(polyethene glycol)-2000] [DSPE(PEG-2000)],CL (mean),[1],0.025 L/h/m^2
same,Vss (mean),[1],1.409 L/m^2
same,dose proportionality for Cmax and AUCinf,[1],demonstrate dose proportionality
